In brackets after ≈: the same amount, converted by molar mass.
Experiments:
[1] = Pharmacokinetic experiment in Beagle dogs (IV and PO); assay type: in vivo; settings: male, dog, plasma
From the text: Polyethylene glycol 400 (batch number: GORKREUT, Saen Chemical Technology (Shanghai) Co., Ltd.); DMSO (batch number: 20200319, GHTECH (Guangdong) Co., Ltd.); and normal saline (batch number: C20052604, Jiangxi Kelun Pharmaceutical Co., Ltd.). An LC-MS instrument (Thermo Fisher Ultimate 3000 UPLC, TSQ QUANTUM ULTRA TSQ Quantum GC).
5 male Beagle dogs with weights being 5 kg to 7 kg, purchased from Beijing Mars Biotechnology Co., Ltd. […]
After the above mixture is given to the dogs through intragastric administration (n=3) or intravenous administration (n=2), about 1 mL of blood is collected from the forelimb or hindlimb vein with a scalp needle, respectively, at 5 min (intravenous administration only), 15 min, 30 min, 1 h, 2 h, 4 h, 6 h, 8 h, 24 h to put into blood collection tubes containing EDTA-K2 anticoagulant; centrifugation is performed for 10 min at 4000 rpm to separate plasma; and then the tubes are stored at −80° C. for testing.
A certain amount of a test sample is accurately weighted and dissolved with DMSO to 2 mg/mL, as a stock solution. The stock solution is diluted to 30000, 10000, 3000, 1000, 300, 100, 50, 30, and 10 ng/mL by using acetonitrile:water (1:1), to obtain standard curve working solutions. 5 μL of the working solution is added to 45 μL of blank canine plasma; and well mixing is performed through vortex, to prepare into standard curve samples equivalent to plasma concentrations of 3000, 1000, 300, 100, 30, 10, 5, 3, and 1 ng/mL. 30 μL of the standard curve sample and the collected plasma sample (plasma collected at 5 min, 15 min, and 30 min of intravenous administration is diluted 5-fold) are added to 150 μL of a propranolol acetonitrile solution (internal standard, 50 ng/mL) to precipitate protein, then 100 μL of water is added to well mix through vortex; centrifugation is performed for 5 min at 4000 rpm; and supernatant is taken for LC-MS analysis. LC-MS detection conditions include the following.
Chromatographic column: Waters ACQUITY™ PREMIER HSS T3, 50*2.1 mm, 1.8 μm.
Mobile phase A: water (0.1% formic acid); mobile phase B: acetonitrile; flow rate: 0.5 mL/min; and gradient elution is shown in Table 3 below.
After LC-MS detection of blood drug concentration, and a non-compartment model of WinNonlin 6.1 software is adopted to calculate pharmacokinetic parameters of beagle dogs after administration.

[2] = Determination of solubility; assay type: physicochemical; settings: aqueous buffer, thermodynamic from solid, 37° C. 1 h
Method: About 0.5 mg of a to-be-tested sample in a centrifuge tube is weighted, an appropriate amount of DMSO is added to completely dissolve the sample, and then methanol is added to make up to 1 ml.
(If there are more pH values to be investigated, the preparation method may be deduced by analogy).
3. The prepared control solution and test solution are simultaneously put into a 37° C. water bath and heated for 1 h, after 1 h, the solutions are taken out and cooled to room temperature, and then the solutions are filtered with a 0.22 μm filter membrane for sample injection.
4. The concentration of the sample in the test solution is calculated according to C=(A*(ms/vs))/AS, and experiment results are shown in Table 2.
Note: ms, vs and AS are the weight, volume and peak area of the sample in the control solution, respectively.
A is the peak area of the test solution.

p38β = p38β (Homo sapiens, UniProt Q15759); test: p38β kinase screening experiment (ADP-Glo); assay type: biochemical; settings: ATP 100 μM in the substrate/ATP mix, 60 min; read-out: IC50 value that the compound inhibits p38β
Method: A certain amount of the compound is weighed, prepared into a 10/50 mM mother solution with DMSO, diluted 3 folds with DMSO, and diluted to 10 concentration points as a compound working solution.
50 nL of the diluted compound working solution is transferred to each well of a reaction plate (784075, Greiner) with Echo 655, then 2.5 μL (2 ng/μL) of a p38β kinase solution is added; after 10 minutes at room temperature, 2.5 μL of a mixed solution of a kinase substrate (0.4 mg/mL) and ATP (100 μM) is added, for reaction for 60 min at room temperature; and 4 μL of an ADP Glo reagent is added, for incubation for 40 min at room temperature. 8 μL of a kinase detection reagent is added, for incubation for 40 min at room temperature; and finally a light-emitting signal is read on Envision 2104.

[3] = system: production of TNFα in U937; test: Releasing TNFα from U937 induced by LPS; assay type: cell-based; settings: Homo sapiens, U-937; PMA-differentiated U937, LPS 100 ng/ml, 4 h; read-out: IC50 value that the compound inhibits the production of TNFα
From the text: Cytokine regulation in human monocytes has shown that the p38 pathway is the key to the biosynthesis of a plurality of pro-inflammatory cytokines including TNFα, IL-1β and IL-6. Therefore, the inhibition of the p38 MAPK pathway is to reduce inflammatory response by reducing the biosynthesis of the pro-inflammatory cytokines. […] This is a reflection of the effect of the compound in the present invention to facilitate reduction of inflammation, which is useful in the treatment of various diseases, including chronic inflammatory diseases, acute inflammatory diseases, or self-inflammatory diseases. The potency and efficacy of the p38 inhibitor in blocking cytokine production are evaluated using a human U937 cell line.
A 1640 medium with an article number being A10491-01, Gibco; penicillin-streptomycin with an article number being 15140-122, Gibco; fetal bovine serum with an article number being 10099-141C, Gibco; PBS with an article number being 10010-031, Gibco; LPS with an article number being L2880, Sigma; PMA with an article number being P1585, Sigma; dimethyl sulfoxide with an article number being D8418-1L, Sigma; and a TNFα kit with an article number being K151QWD-4, MSD.
A 96-well plate with an article number being 3599, Corning; a plate-vibrating device with an article number being QB-9002, QILINBEIER; a centrifuge with an article number being 5810R, Eppendorf; a carbon dioxide incubator with an article number being 371, Thermo; a counter with an article number being C10281, Gibco; a microscope with an article number being CKX41, OLYMPUS; and an MSD plate reader with an article number being 1201 MESO SECTOR 600, MSD.
U937, ATCC with an article number being CRL-1593.2.
About 2 mg of a drug is weighted; a mother solution is prepared to 10 mM (which is calculated by free alkali) by means of DMSO; and the mother solution is diluted 10-fold to 1 mM, and then is successively diluted 4-fold to 250 μM, 62.5 μM, 15.6 μM, 3.9 μM, 0.97 μM, 0.24 μM, and 0.061 μM. The above series of diluted DMSO drugs is diluted 20-fold as working solutions by using media.
At Day 0, 10000/well inoculation is performed, stimulation is performed for 48 h with 20 ng/ml of PMA, and culture is performed at 37° C., 5% CO2. • At Day 2, 1. Supernatant is removed from differentiated U937, cleaning is performed once with PBS, and 96 μl of the 1640 medium is added. • 2. 2 μl of the compound containing (DMSO with a final concentration being 0.1%), and culture is performed for 30 min at 37° C., 5% CO2. • 3. 2 μl of LPS (a final concentration being 100 ng/ml) is added, cells are stimulated, and culture is performed for 4 h at 37° C., 5% CO2. • 4. Centrifugation is performed, supernatant is taken, and content of TNFα in the supernatant is determined through ELISA.
The content of TNFα corresponding to each well is calculated by using a standard curve in the kit.
The compound IC50 is calculated by using a GraphPad nonlinear fitting formula, and for an experimental result, refer to Table 1.

Chain of p38β (Q15759 whole entry): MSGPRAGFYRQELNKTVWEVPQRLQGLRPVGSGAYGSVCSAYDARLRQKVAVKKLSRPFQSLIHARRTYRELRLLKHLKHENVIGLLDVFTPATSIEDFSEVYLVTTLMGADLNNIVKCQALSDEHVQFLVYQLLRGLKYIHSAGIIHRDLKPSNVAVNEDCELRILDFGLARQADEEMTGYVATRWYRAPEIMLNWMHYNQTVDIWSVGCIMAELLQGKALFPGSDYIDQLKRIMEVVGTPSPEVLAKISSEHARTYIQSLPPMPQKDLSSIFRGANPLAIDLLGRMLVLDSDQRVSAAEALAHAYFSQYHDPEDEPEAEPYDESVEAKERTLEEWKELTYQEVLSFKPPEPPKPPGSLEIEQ

- AUC(0-t) ([1]; IV 1 mg/kg): 1530 ng·h/mL
- Cmax ([1]; IV 1 mg/kg): 657 ng/mL
- clearance ([1]; IV 1 mg/kg): 10.7 mL/min/kg
- AUC(0-t) ([1]; PO 5 mg/kg): 14400 ng·h/mL
- Cmax ([1]; PO 5 mg/kg): 2000 ng/mL
- bioavailability ([1]; PO 5 mg/kg vs IV 1 mg/kg): 189%
- solubility at 1 h ([2]; pH = 2.0, PBS buffer): 56.8 µg/mL (≈ 111 µM)
- solubility at 1 h ([2]; pH = 7.4, PBS buffer): 26.8 µg/mL (≈ 52.1 µM)
- IC50 (p38β): 5970 nM
- IC50 [3]: 10.4 nM
Structure (SMILES): Cc1cnc(-c2ccnc(C(C)(C)O)n2)cc1-n1c(C)cc(OCc2ncc(F)cc2F)c(Cl)c1=O (racemic) [Comparative example 1]
